Test results as given in ChEMBL document CHEMBL1136738, “Design, synthesis, and pharmacological profile of novel fused pyrazolo[4,3-d]pyridine and pyrazolo[3,4-b][1,8]naphthyridine isosteres: a new class of potent and selective acetylcholinesterase inhibitors” (J Med Chem, 2003).

Key:
Acetylcholinesterase = biological target: T1, Acetylcholinesterase (Rattus norvegicus, UniProt P37136); test: Inhibitory activity against rat brain total Acetylcholinesterase (AChE) was determined using Ellman's method
T1 sequence (P37136 whole entry): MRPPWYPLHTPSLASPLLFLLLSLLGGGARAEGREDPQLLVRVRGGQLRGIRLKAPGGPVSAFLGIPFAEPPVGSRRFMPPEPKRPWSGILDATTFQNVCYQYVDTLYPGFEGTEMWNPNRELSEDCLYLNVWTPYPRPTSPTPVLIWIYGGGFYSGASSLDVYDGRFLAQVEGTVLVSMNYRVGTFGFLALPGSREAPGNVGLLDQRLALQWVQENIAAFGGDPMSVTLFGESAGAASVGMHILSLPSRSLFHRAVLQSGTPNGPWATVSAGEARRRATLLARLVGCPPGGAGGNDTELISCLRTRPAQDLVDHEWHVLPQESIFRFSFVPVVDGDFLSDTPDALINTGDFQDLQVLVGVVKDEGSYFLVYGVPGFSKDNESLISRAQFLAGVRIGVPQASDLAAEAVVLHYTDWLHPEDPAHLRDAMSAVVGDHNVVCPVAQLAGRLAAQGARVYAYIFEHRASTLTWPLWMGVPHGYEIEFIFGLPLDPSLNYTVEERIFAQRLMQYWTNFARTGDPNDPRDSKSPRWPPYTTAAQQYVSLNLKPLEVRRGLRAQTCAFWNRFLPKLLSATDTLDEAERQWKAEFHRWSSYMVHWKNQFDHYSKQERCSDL

Butyrylcholinesterase = Butyrylcholinesterase (Rattus norvegicus, UniProt Q9JKC1)
Chain of Butyrylcholinesterase (Q9JKC1 whole entry): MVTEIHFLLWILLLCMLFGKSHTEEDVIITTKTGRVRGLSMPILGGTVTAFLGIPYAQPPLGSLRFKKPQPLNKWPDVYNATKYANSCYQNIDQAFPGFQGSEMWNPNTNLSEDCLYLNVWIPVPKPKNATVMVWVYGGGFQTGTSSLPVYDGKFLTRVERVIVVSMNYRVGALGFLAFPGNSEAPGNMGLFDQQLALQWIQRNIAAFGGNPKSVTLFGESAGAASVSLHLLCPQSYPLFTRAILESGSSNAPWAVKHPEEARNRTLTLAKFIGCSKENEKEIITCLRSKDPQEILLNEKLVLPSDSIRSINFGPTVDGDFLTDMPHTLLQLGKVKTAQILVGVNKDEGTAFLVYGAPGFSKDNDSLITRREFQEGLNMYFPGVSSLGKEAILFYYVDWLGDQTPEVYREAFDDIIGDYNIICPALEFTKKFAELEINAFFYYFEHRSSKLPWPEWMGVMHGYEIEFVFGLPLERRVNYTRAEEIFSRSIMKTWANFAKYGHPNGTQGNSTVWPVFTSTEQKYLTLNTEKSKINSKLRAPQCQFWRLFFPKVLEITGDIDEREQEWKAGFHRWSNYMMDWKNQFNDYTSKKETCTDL
Description: Inhibitory concentration against rat brain butyrylcholinesterase (BuChE) was determined using Ellman's method

SMILES | IC50 (Acetylcholinesterase) [µM] | IC50 (Butyrylcholinesterase) [µM]
Cc1nn(-c2ccccc2)c2c(N)c3c(nc12)CCC3 | 32.2 | 
Cc1nn(-c2ccccc2)c2nc3c(c(N)c12)CCCC3 | 28.5 | 
COc1ccc2c3c1C[C@H]1C[C@@H](O)C=C[C@]31CCN(C)C2 | 3.1 | 
Cc1nn(-c2ccccc2)c2nc3nc4c(c(N)c3cc12)CCCC4 | 6.39 | 134
Cc1nn(-c2ccccc2)c2c(N)c3c(nc12)CCCC3 | 26.7 | 
Nc1c2c(nc3nn(-c4ccccc4)cc13)CCCC2 | 6.01 | 31.9
Cc1nn(-c2ccccc2)c2nc3c(c(N)c12)CCC3 | 31.2 | 
Cc1nn(-c2ccccc2)c2nc3nc4c(c(N)c3cc12)CCC4 | 23.2 | 
